This is an account of results in patent US9169254B2, “Spiroimidazolone derivative” (Chugai Seiyaku Kabushiki Kaisha, priority 2009, dated 2015).

The assay deals with T1, human PTH1 receptor (Homo sapiens, UniProt Q03431).
T1 sequence (Q03431 27-593): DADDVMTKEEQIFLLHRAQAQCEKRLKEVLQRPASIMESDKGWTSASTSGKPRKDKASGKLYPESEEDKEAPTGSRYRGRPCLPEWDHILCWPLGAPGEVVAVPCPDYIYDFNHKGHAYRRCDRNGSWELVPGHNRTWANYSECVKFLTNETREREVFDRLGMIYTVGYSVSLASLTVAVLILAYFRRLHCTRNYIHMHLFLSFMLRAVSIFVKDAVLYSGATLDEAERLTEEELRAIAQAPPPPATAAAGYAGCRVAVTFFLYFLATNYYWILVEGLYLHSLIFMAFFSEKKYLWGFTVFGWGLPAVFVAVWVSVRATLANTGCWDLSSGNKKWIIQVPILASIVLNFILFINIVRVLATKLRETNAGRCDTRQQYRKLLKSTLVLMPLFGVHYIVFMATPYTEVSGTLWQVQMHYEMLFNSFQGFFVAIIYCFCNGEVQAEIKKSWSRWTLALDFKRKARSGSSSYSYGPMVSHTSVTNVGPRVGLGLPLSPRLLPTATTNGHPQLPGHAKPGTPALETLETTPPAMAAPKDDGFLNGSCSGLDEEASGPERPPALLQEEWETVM
Nature of the assay: In vitro cAMP signal activity in HKRK-B7 cells (LLC-PK1 cells overexpressing the human PTH1 receptor). Format: cell-based. As to conditions: HKRK-B7 cells; compound at 1×10^−3 M; cAMP produced as percentage of that produced by hPTH(1-34) at 100 nM.
`Cc1cc(C(=O)N2CCC(C)(O)CC2)cc(C)c1CCS(=O)(=O)N1CCC2(CC1)N=C(C1CCC(CCC(F)(F)F)CC1)NC2=O` (centres unmarked) [Compound 1380, 8-{2-[4-(4-hydroxy-4-methyl-piperidine-1-carbonyl)-2,6-dimethyl-phenyl]-ethanesulfonyl}-2-[4-(3,3,3-trifluoro-propyl)-cyclohexyl]-1,3,8-triaza-spiro[4.5]dec-1-en-4-one]: the “cAMP production activity (%)” value is listed as 109%. The result for `COCc1cc(NC(C)=O)ccc1CCS(=O)(=O)N1CCC2(CC1)N=C(C1CCC(C)CC1)NC2=O` (centres unmarked) [Compound 754, N-(3-methoxymethyl-4-{2-[2-(4-methyl-cyclohexyl)-4-oxo-1,3,8-triaza-spiro[4.5]dec-1-ene-8-sulfonyl]-ethyl}-phenyl)-acetamide] reads 89%; that for `Cc1cc(N(C)C(N)=O)cc(C)c1CCS(=O)(=O)N1CCC2(CC1)N=C(c1cccc(OC(F)(F)F)c1)NC2=O` [Compound 935, 1-(3,5-dimethyl-4-{2-[4-oxo-2-(3-trifluoromethoxy-phenyl)-1,3,8-triaza-spiro[4.5]dec-1-ene-8-sulfonyl]-ethyl}-phenyl)-1-methyl-urea], 112%; that for `Cc1cc(N(C)C(N)=O)cc(C)c1/C=C/S(=O)(=O)N1CCC2(CC1)N=C(c1ccc(F)c(C(F)(F)F)c1)NC2=O` [Compound 1017, 1-(4-{(E)-2-[2-(4-Fluoro-3-trifluoromethyl-phenyl)-4-oxo-1,3,8-triaza-spiro[4.5]dec-1-ene-8-sulfonyl]-vinyl}-3,5-dimethyl-phenyl)-1-methyl-urea], 101%. In the case of `O=C(OCc1ccccc1)N1CCCC(C2=NC3(CCN(S(=O)(=O)CCc4cccc5ccccc45)CC3)C(=O)N2)C1` (centres unmarked) [Compound 464, 3-[8-(2-naphthalen-1-yl-ethanesulfonyl)-4-oxo-1,3,8-triaza-spiro[4.5]dec-1-en-2-yl]-piperidine-1-carboxylic acid benzyl ester], the “cAMP production activity (%)” value stood at 54%. As to `Cc1cc(NCC(N)=O)ccc1CCS(=O)(=O)N1CCC2(CC1)N=C(c1cccc(OC(F)(F)F)c1)NC2=O` [Compound 847, 2-(3-methyl-4-{2-[4-oxo-2-(3-trifluoromethoxy-phenyl)-1,3,8-triaza-spiro[4.5]dec-1-ene-8-sulfonyl]-ethyl}-phenylamino)-acetamide], the “cAMP production activity (%)” value stood at 71%.

On to `Cc1cc(C(=O)N2CCC(C)(O)CC2)cc(C)c1/C=C/S(=O)(=O)N1CCC2(CC1)N=C(c1ccc(OCC(F)(F)C(F)(F)F)c(C(F)(F)F)c1)NC2=O` [Compound 1203, 8-{(E)-2-[4-(4-hydroxy-4-methyl-piperidine-1-carbonyl)-2,6-dimethyl-phenyl]-ethenesulfonyl}-2-[4-(2,2,3,3,3-pentafluoro-propoxy)-3-trifluoromethyl-phenyl]-1,3,8-triaza-spiro[4.5]dec-1-en-4-one], for which the “cAMP production activity (%)” value worked out at 90%.

As to `CC1(C)OC[C@H](Cn2cc(F)c3c(/C=C/S(=O)(=O)N4CCC5(CC4)N=C(C4CCCCC4)NC5=O)cccc32)O1` [Compound 202, 2-cyclohexyl-8-{(E)-2-[1-((S)-2,2-dimethyl-[1,3]dioxolan-4-ylmethyl)-3-fluoro-1H-indol-4-yl]-ethenesulfonyl}-1,3,8-triaza-spiro[4.5]dec-1-en-4-one], the “cAMP production activity (%)” value is listed as 27%. For `CCOCC1CCC(C2=NC3(CCN(S(=O)(=O)CCc4ccc(NC(C)=O)cc4C)CC3)C(=O)N2)CC1` (centres unmarked) [Compound 910, N-(4-{2-[2-(4-ethoxymethyl-cyclohexyl)-4-oxo-1,3,8-triaza-spiro[4.5]dec-1-ene-8-sulfonyl]-ethyl}-3-methyl-phenyl)-acetamide] the value was 64%; for `Cc1cc(N2C(=O)CNC2=O)ccc1CCS(=O)(=O)N1CCC2(CC1)N=C(C1CCC(/C=C/C(F)F)CC1)NC2=O` (centres unmarked) [Compound 945, 3-[4-(2-{2-[4-((E)-3,3-difluoro-propenyl)-cyclohexyl]-4-oxo-1,3,8-triaza-spiro[4.5]dec-1-ene-8-sulfonyl}-ethyl)-3-methyl-phenyl]-imidazolidine-2,4-dione], 77%.

Consider `Cc1cc(C(=O)N(C)C)ccc1CCS(=O)(=O)N1CCC2(CC1)N=C(C1CCC(C(C)(C)C)CC1)NC2=O` (centres unmarked) [Compound 895, 4-{2-[2-(4-tert-butyl-cyclohexyl)-4-oxo-1,3,8-triaza-spiro[4.5]dec-1-ene-8-sulfonyl]-ethyl}-3,N,N-trimethyl-benzamide], for which the “cAMP production activity (%)” value was found to be 90%. Consider `Cc1cc(OCCCN(C)C)ccc1/C=C/S(=O)(=O)N1CCC2(CC1)N=C(c1cccc(OC(F)(F)F)c1)NC2=O` [Compound 235, 8-{(E)-2-[4-(3-dimethylamino-propoxy)-2-methyl-phenyl]-ethenesulfonyl}-2-(3-trifluoromethoxy-phenyl)-1,3,8-triaza-spiro[4.5]dec-1-en-4-one], for which the “cAMP production activity (%)” value was determined as 49%.

For `CONC(=O)Cc1ccc(/C=C/S(=O)(=O)N2CCC3(CC2)N=C(C2CCC(C)CC2)NC3=O)c(C)c1` (centres unmarked) [Compound 988, N-methoxy-2-(3-methyl-4-{(E)-2-[2-(4-methyl-cyclohexyl)-4-oxo-1,3,8-triaza-spiro[4.5]dec-1-ene-8-sulfonyl]-vinyl}-phenyl)-acetamide], the “cAMP production activity (%)” value is recorded as 50%.

As for `CC1(C)OC[C@H](Cn2ccc3c(/C=C/S(=O)(=O)N4CCC5(CC4)N=C(C4CCCCC4)NC5=O)c(F)ccc32)O1` [Compound 500, 2-cyclohexyl-8-{(E)-2-[1-((S)-2,2-dimethyl-[1,3]dioxolan-4-ylmethyl)-5-fluoro-1H-indol-4-yl]-ethenesulfonyl}-1,3,8-triaza-spiro[4.5]dec-1-en-4-one], the “cAMP production activity (%)” value is 61%.

On to `COC(=O)CCC(=O)N1CCN(C(=O)c2cc(C)c(/C=C/S(=O)(=O)N3CCC4(CC3)N=C(c3cccc(OC(F)(F)F)c3)NC4=O)c(C)c2)CC1` [Compound 448, 4-[4-(3,5-dimethyl-4-{(E)-2-[4-oxo-2-(3-trifluoromethoxy-phenyl)-1,3,8-triaza-spiro[4.5]dec-1-ene-8-sulfonyl]-vinyl}-benzoyl)-piperazin-1-yl]-4-oxo-butyric acid methyl ester], for which the “cAMP production activity (%)” value turned out to be 64%. The result for `CCCCCCCCCC1=NC2(CCN(S(=O)(=O)/C=C/c3ccc(N(CCOCCO)C(C)=O)cc3C)CC2)C(=O)N1` [Compound 700, N-[2-(2-Hydroxy-ethoxy)-ethyl]-N-{3-methyl-4-[(E)-2-(2-nonyl-4-oxo-1,3,8-triaza-spiro[4.5]dec-1-ene-8-sulfonyl)-vinyl]-phenyl}-acetamide] reads 121%; that for `O=C(NCCO)Nc1ccc(/C=C/S(=O)(=O)N2CCC3(CC2)N=C(C2CCCCC2)NC3=O)c(C(F)(F)F)c1` [Compound 198, 1-{4-[(E)-2-(2-cyclohexyl-4-oxo-1,3,8-triaza-spiro[4.5]dec-1-ene-8-sulfonyl)-vinyl]-3-trifluoromethyl-phenyl}-3-(2-hydroxy-ethyl)-urea], 31%. The result for `Cc1cc(C(=O)N2CCC(O)CC2)cc(C)c1/C=C/[S@TB4](=O)(=O)N1CCC2(CC1)N=C(c1ccc3c(c1)OC(F)(F)O3)NC2=O` [Compound 1160, 2-(2,2-difluoro-benzo[1,3]dioxol-5-yl)-8-{(E)-2-[4-(4-hydroxy-piperidine-1-carbonyl)-2,6-dimethyl-phenyl]-ethenesulfonyl}-1,3,8-triaza-spiro[4.5]dec-1-en-4-one] reads 84%; that for `Nc1cccc(CCS(=O)(=O)N2CCC3(CC2)N=C(C2CCCCC2)NC3=O)c1` [Compound 166, 8-[2-(3-Amino-phenyl)-ethanesulfonyl]-2-cyclohexyl-1,3,8-triaza-spiro[4.5]dec-1-en-4-one], 56%. The result for `Cc1cc(N(CC#N)C(N)=O)ccc1CCS(=O)(=O)N1CCC2(CC1)N=C(c1cccc(OC(F)(F)F)c1)NC2=O` [Compound 876, 1-cyanomethyl-1-(3-methyl-4-{2-[4-oxo-2-(3-trifluoromethoxy-phenyl)-1,3,8-triaza-spiro[4.5]dec-1-ene-8-sulfonyl]-ethyl}-phenyl)-urea] reads 22%; that for `Cc1cc(N(C)C(N)=O)cc(C)c1CCS(=O)(=O)N1CCC2(CC1)N=C(c1ccc(C(C)(C)C)cc1)NC2=O` [Compound 1030, 1-(4-{2-[2-(4-tert-butyl-phenyl)-4-oxo-1,3,8-triaza-spiro[4.5]dec-1-ene-8-sulfonyl]-ethyl}-3,5-dimethyl-phenyl)-1-methyl-urea], 115%. Turning to `Cc1c(O)cccc1/C=C/S(=O)(=O)N1CCC2(CC1)N=C(c1cccc(OC(F)(F)F)c1)NC2=O` [Compound 226, 8-[(E)-2-(3-Hydroxy-2-methyl-phenyl)-ethenesulfonyl]-2-(3-trifluoromethoxy-phenyl)-1,3,8-triaza-spiro[4.5]dec-1-en-4-one], the “cAMP production activity (%)” value was determined as 83%. The result for `CCc1cccc(NS(=O)(=O)N2CCC3(CC2)N=C(C2CCCCC2)NC3=O)c1` [Compound 177, 2-Cyclohexyl-4-oxo-1,3,8-triaza-spiro[4.5]dec-1-ene-8-sulfonic (3-ethylphenyl)amide] reads 28%.
